Results reported in patent EP2815749A1, “Solid form of 4-amino-2-(2,6-dioxopiperidine-3-yl)isoindoline-1,3-dione having specified X-ray diffraction pattern” (IP Gesellschaft für Management mbH, priority 2013, dated 2014).
Structures can show the parent of a compound that is named as a salt. Where two headings read alike, the source gives them in different places.

Tests used:
[1] = physchem; details: thermodynamic from solid
[2] = water; listed as free base
Description: Hygroscopicity: Sorption/desorption isotherms were measured using the VT1100 humidity microbalance (VTI Corporation, Hialeah, FL, USA). Measurements were carried out at 25°C. Samples were dried under N2 flow at 25°C. […] Concentration in supernatant was measured by gravimetry for organic solvents and by HPLC from aqueous solvents and propylene glycol.

[3] = In vivo pharmacokinetics of Compound (VI) free base and hemisulfate salt capsules; details: dogs, oral capsule, 150 mg of Compound (VI) (or equivalent), after pretreatment with famotidine (40 mg)
Description: An aliquot of 0.050 mL of dog EDTA plasma was used for the assay. […] A 450 µï^ portion of the organic layer was removed and evaporated to dryness. The residue was reconstituted in 300 µl, of the reconstitution solution (30% acetonitrile in 10 mM NH40Ac with 0.01% acetic acid). All liquid transfer steps were performed using a Perkin Elmer JANUS Mini® liquid handler except for the addition of the internal standard solution. A 5 µï^ aliquot of the extracted sample was injected to uHPLC-MS/MS system. The uHPLC was performed on a LEAP 4X Ultra uHPLC system with LEAP HTC PAL autosampler. Mobile phase A contained 10 mM NH4OAc and 0.01% acetic acid in ACN/water (10:90), and mobile phase B contained 10 mM NH4OAc and 0.01% acetic acid in ACN/water (90: 10). […] The flow rate was 0.6 mL/min and column temperature was maintained at 60°C condition. Detection was accomplished using an AB Sciex Triple Quad 5500 mass spectrometer in positive ESI with turbo ion spray ionization and using multiple reaction monitoring (MRM) mode. […] Data acquisition and quantification were performed using AB Sciex Analyst® 1.5.1 software.

[4] = Equilibration and form conversion experiments of Compound of formula (V); type: physicochemical; details: for Form by XRPD after equilibration: Ambient, 8 days
Description: Equilibration: Equilibration studies using single, binary and ternary combinations of batch solvents (water, acetone, and acetonitrile) were investigated to mimic key steps in manufacturing 3-(4-nitro-1-oxoisoindolin-2-yl)piperidine-2,6-dione. Materials of 3-(4-nitro-1-oxoisoindolin-2-yl)piperidine-2,6-dione and solvent or solvent mixtures were added to a glass vial to achieve free-flowing slurry and allowed to equilibrate at the specified temperature. After equilibration for 8 days, the solid phase was separated via filtration. The solid phase was then dried under air and analyzed by XRPD. List of Experimental Conditions for Equilibration:
A total of four batches of 3-(4-nitro-1-oxoisoindolin-2-yl)piperidine-2,6-dione were characterized by XRPD, DSC, TGA, ATR-FTIR and DVS, as described in section 6.5. The solid form represented by the batch 1 was designated as Form A ({drug5b}); the solid form represented by the batch 4 was designated as Form B ({drug5c}); the batches 2 and 3 were determined to be mixtures of Forms A and B, with Form B ({drug5c}) dominating the patterns. The equilibration experiments were performed using batches 2, 3 and 4, and the results are described in Table 2. Results for Equilibration Experiments:
Results from Additional Form conversion Experiments: […]

[5] = Hygroscopicity of forms of Compound of formula (V) (DVS); type: physicochemical; details: between 0% and 90% relative humidity; 25°C
Description: Differential Scanning Calorimetry (DSC): DSC analyses were performed on a TA instrument Q2000 Differential Scanning Calorimeter. Indium was used as the calibration standard. Approximately 2-5 mg of sample was placed into a DSC pan. The sample was heated under nitrogen at a rate of 10°C/min, up to a final temperature of 350°C. Melting points were reported as the extrapolated onset temperatures. Thermogravimetric Analysis (TGA): TGA analyses were performed on a TA instrument Q5000 Thermogravimetric Analyzer. Calcium oxalate was used for a performance check. Approximately 2-10 mg of accurately weighed sample was placed on a pan and loaded into the TGA furnace. The sample was heated under nitrogen at a rate of 10°C/min, up to a final temperature of 300°C. Attenuated Total Reflection Fourier-Transform Infrared Analysis (ATR-FTIR): FTIR analyses were performed on the samples "as is" using an attenuated total reflection (ATR) attachment on a Nicolet 6700 FTIR spectrometer. After a background of ambient lab conditions was obtained, samples were placed on the ATR, compressed with the anvil, and spectrum acquired. Miniature Scanning Electron Microscope (Mini SEM) Morphology analysis of the samples was carried out on an Even Mini SEM. Small amounts of samples were dispersed on a sample holder, and then coating with gold viewed with 200x and 1000x magnification. Dynamic Vapor Sorption (DVS) Hygroscopicity was determined on a Surface Measurement Systems DVS. Typically a sample size of 5-30 mg was loaded into the DVS instrument sample pan and the sample was analyzed on a DVS automated sorption analyzer at 25°C. The relative humidity was increased from 0 % to 90 %RH at 10 %RH step. The relative humidity was then decreased in a similar manner to accomplish a full adsorption/desorption cycle. The entire scope of this invention is not limited by the specific examples described herein, but is more readily understood with reference to the appended claims.

[6] = Equilibration and form conversion experiments of Compound of formula (V); type: physicochemical; details: for Form by XRPD after equilibration: 6 hours; for XRPD Result after form conversion experiment: Heated to 220 °C for 4 hours
[7] = Salt screening and crystalline salt characterization of Compound (VI); details: for Hygroscopicity: ambient temperature and relative humidity conditions, hemisulfate salt
Description: The screening examined acid type, acid level (equivalents), and/or type of crystallization solvent. Each plate contained 96 well plates (8 rows of 12 columns per plate). […] The solution (12.5 mL) was transferred to 24 vials. To each vial was added 0.25 M EtOH stock solutions of the following acids:
The content of each vial was transferred to 12 crystallization wells and evaporated to dryness. Upon evaporation, each well was charged with 100 µl of solvent using a robotic liquid handler. The following crystallization solvents were tested: methyl isobutyl ketone (MIBK), ethyl acetate, toluene, THF, acetonitrile, acetone, isopropanol, ethanol, methanol, 1,2-dichloroethylene, isopropanol/water (50:50), and water. Next, the plates were sealed with Teflon septa and subjected to temperature cycling. […] After the heating/cooling cycle, the contents of the wells were characterized by birefringent imaging. Perceived crystalline hits were further characterized by PXRD analysis.

Question: With N#Cc1ccc([C@H]2CCc3cncn32)c(F)c1 [Compound (III), 4-(R)-(6,7-Dihydro-5H-pyrrolo[1,2-c]imidazol-5-yl)-3-fluoro-benzonitrile] as the compound, how does the Moisture gain (r.h. 0%) read?
Answer: Its Moisture gain is 0.0%.

Question: And the Moisture gain (r.h. 5%)?
Answer: Its Moisture gain is 0.0%.

Question: What about the Moisture gain (r.h. 25%, listed as free base) of the same compound?
Answer: Its Moisture gain is 0.1%.

Question: What about the Moisture gain (r.h. 50%, listed as free base) of the same compound?
Answer: Its Moisture gain is 0.2%.

Question: And the Moisture gain (r.h. 75%, listed as free base)?
Answer: The Moisture gain was 0.3%.

Question: And the Moisture gain (r.h. 85%, listed as free base)?
Answer: The Moisture gain was 0.5%.

Question: What about the Moisture gain (r.h. 95%, listed as free base) of the same compound?
Answer: Its Moisture gain is 1.0%.

Question: And the solubility ([1]; acetone, 25 °C, organic solvent or mixture)?
Answer: Its solubility is greater than 50 mg/mL.

Question: And the solubility ([1]; aqueous solvent, pH 1, 25 °C, pH 1, simulated gastric fluid, pH 1)?
Answer: The solubility was greater than 50 mg/mL.

Question: What about the solubility ([1]; ethanol, 25 °C, organic solvent or mixture) of the same compound?
Answer: The solubility was greater than 50 mg/mL.

Question: What about the solubility ([1]; ethyl acetate, 25 °C, organic solvent or mixture) of the same compound?
Answer: Its solubility is greater than 50 mg/mL.

Question: What about the “Solubility in water at the 0.1% target concentration” value [2] of the same compound?
Answer: The value was “largely insoluble”.

Question: For N[C@@H]1c2cccnc2[C@H](OC(=O)N2CCC(n3c(=O)[nH]c4ncccc43)CC2)CC[C@H]1c1cccc(F)c1F [Compound (VI), N-(5S,6S,9R)-5-amino-6-(2,3-10-difluorophenyl)-6,7,8,9-tetrahydro-5H-cyclohepta[b]pyridin-9-yl-4-(2-oxo-2,3-dihydro-1H-imidazo[4,5-b]pyridin-1-yl)piperidine-1-carboxylate], which bioavailability ([3]; listed as Compound (VI) free base) is on record?
Answer: Its bioavailability is 4.54%.

Question: Which results are given for O=C1CCC(N2Cc3c(cccc3[N+](=O)[O-])C2=O)C(=O)N1 (centres unmarked) [Form A ({drug5b}), 3-(4-nitro-1-oxoisoindolin-2-yl)piperidine-2,6-dione]?
Answer: Form conversion to other forms ([4]; form conversion studies): no conversion; total mass change [5]: 0.42%

Question: For O=C1CCC(N2Cc3c(cccc3[N+](=O)[O-])C2=O)C(=O)N1 (centres unmarked) [Form B ({drug5c}), 3-(4-nitro-1-oxoisoindolin-2-yl)piperidine-2,6-dione], which “Form by XRPD after equilibration” value ([4]; Acetone/water (1:1)) is on record?
Answer: The value was “converts to Form A”.

Question: And the “Form by XRPD after equilibration” value ([4]; Acetonitrile/water (1:1))?
Answer: Its value is “converts to Form A”.

Question: What about the “Form by XRPD after equilibration” value ([4]; Acetonitrile/water/acetone (1:1:1)) of the same compound?
Answer: Its value is “converts to Form A”.

Question: And the “Form by XRPD after equilibration” value ([4]; acetone)?
Answer: Its value is “converts to Form A”.

Question: And the “Form by XRPD after equilibration” value ([4]; water)?
Answer: Its value is “converts to Form A”.

Question: And the total mass change [5]?
Answer: Its total mass change is 0.39%.

Question: What about the “Form by XRPD after equilibration” value ([6]; Acetonitrile, 80 °C (or reflux)) of the same compound?
Answer: Its value is “converts to Form A”.

Question: And the “Form by XRPD after equilibration” value ([6]; Acetonitrile/water (2:1), 60 °C)?
Answer: The value was “converts to Form A”.

Question: And the “XRPD Result after form conversion experiment” value [6]?
Answer: The value was “converts to Form A”.

Question: Which results are given for O=C1CCC(N2Cc3c(cccc3[N+](=O)[O-])C2=O)C(=O)N1 (centres unmarked) [Form C ({drug5d}), 3-(4-nitro-1-oxoisoindolin-2-yl)piperidine-2,6-dione]?
Answer: total mass change [5]: 0.43%; XRPD Result after form conversion experiment [6]: partially converts to Form A; Form conversion ([6]; ambient temperature, NMP/acetone/water (1:2.5:2.5), time not stated): converts to Form A

Question: With N[C@@H]1c2cccnc2[C@H](OC(=O)N2CCC(n3c(=O)[nH]c4ncccc43)CC2)CC[C@H]1c1cccc(F)c1F [hemisulfate salt of Compound (VI), (5S,6S,9R)-5-amino-6-(2,3-dfluorophenyl)-6,7,8,9-tetrahydro-5H-cyclohepta[b] pyridin-9-yl 4-(2-oxo-2,3-dihydro-1 H-imidazo[4,5-b]pyridin-1-yl)piperidine-1-carboxylate, hemisulfate salt] as the compound, how does the Chemical stability [7] read?
Answer: Its Chemical stability is “chemically stable”.

Question: What about the Physical stability [7] of the same compound?
Answer: Its Physical stability is “physically stable”.

Question: And the Hygroscopicity [7]?
Answer: The Hygroscopicity was “low hygroscopicity”.

Question: What about the Hygroscopicity ([7]; listed as Sulfuric acid) of the same compound?
Answer: The Hygroscopicity was “low/non-hygroscopic at ambient temperatures and relative humidity conditions”.

Question: What about the bioavailability ([3]; hemisulfate salt) of the same compound?
Answer: Its bioavailability is 34.73%.
